Experimental data from patent US12276654B2, “Chemical probe-dependent evaluation of protein activity and uses thereof” (The University of Chicago, priority 2017, dated 2025).

Biological target: T1, FAAH (Homo sapiens, UniProt O00519)
T1 construct: endogenous in cells
T1 sequence (O00519 1-579): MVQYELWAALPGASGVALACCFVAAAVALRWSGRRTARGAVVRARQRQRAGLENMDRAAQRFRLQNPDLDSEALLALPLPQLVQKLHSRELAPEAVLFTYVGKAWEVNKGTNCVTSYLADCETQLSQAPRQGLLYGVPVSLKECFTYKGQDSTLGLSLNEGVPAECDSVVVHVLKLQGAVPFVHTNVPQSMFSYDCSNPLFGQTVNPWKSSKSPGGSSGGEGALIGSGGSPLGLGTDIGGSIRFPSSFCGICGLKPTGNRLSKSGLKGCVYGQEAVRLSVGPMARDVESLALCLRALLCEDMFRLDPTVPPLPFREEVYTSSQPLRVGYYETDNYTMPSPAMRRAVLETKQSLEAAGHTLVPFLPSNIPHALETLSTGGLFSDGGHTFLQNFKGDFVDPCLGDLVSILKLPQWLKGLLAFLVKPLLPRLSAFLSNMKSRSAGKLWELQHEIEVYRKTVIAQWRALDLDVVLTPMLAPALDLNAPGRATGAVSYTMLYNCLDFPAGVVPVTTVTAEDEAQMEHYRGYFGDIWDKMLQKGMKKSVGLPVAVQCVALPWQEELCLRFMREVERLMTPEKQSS
Experiment: sADPL in situ target engagement in cancer cells, FAAH
Format: cell-based
Conditions: inhibitor prior to family-wide probe
Protocol: FIG. 23. In situ Target Engagement. Cancer cells were treated with DMSO as the control, with inhibitor prior to family wide probe to pre-block the active site, or with family-wide probe directly. Then sADPL workflow was applied to read out the CT difference. Serine hydrolase NCEH1 and its specific inhibitor JW480, or FAAH and inhibitor PF3845 were applied. The activity fold change was transformed from CT value with PCR amplification factor 1.91 determined by a standard qPCR curve and the activities were normalized to DMSO control at different cell lysate concentrations. […] To quantitatively measure the target engagement, different dose of JW480 was applied to either its target NCEH1, or off-target MGLL.
As another alternative detection method, sADPL is complementary with gel-based and MS-based detection methods. In this design, the inventors treat the live cell with several family-wide probes. The probes will label all the members of the protein families. Then one could get the labeled proteome after the cell lysis. […]
A summary of this assay is provided below: • 1. […] In the oligo design, the orthogonal forward primers were employed for different antibody to enable the multiplexing real time PCR readout. […]
Two amine modified oligos were conjugated to antibody and streptavidin, respectively. […] A Taqman probe was designed for real time PCR quantification. […]

SMILES: O=C(Nc1cccnc1)N1CCC(Cc2cccc(Oc3ccc(C(F)(F)F)cn3)c2)CC1 [PF3845]
- FAAH activity in inhibitor competition group by sADPL, normalized to DMSO control: bring the activities down to the levels of DMSO controls
